Results reported in patent US8263056B2, “Dyed-hair-binding peptides and peptide-based hair reagents for personal care” (E I du Pont de Nemours and Company, priority 2007, dated 2012).

settings: read-out: EC50 (concentration at which half the maximum binding was observed by measuring A405 nm), binding to dyed hair, ELISA-type assay
Description: Each selection round was monitored for enrichment of phage displaying dyed-hair-binding peptides using ELISA-like assays in the deep well plates performed using an anti-M13 phage antibody conjugated to horseradish-peroxidase, followed by the addition of a chromogenic agent ABTS (2,2′-azino-bis(3-ethylbenzthiazoline-6-sulphonic acid)). The plates were read at 405 nm.
Relative binding strengths of the phage can also be determined by testing serial dilutions of the phage for binding to dyed hair in an ELISA. For example, serial dilutions of the display-selected clones were exposed to dyed hair in an ELISA. […] Primers against the phage vector sequence (available from New England BIOLABS®) that flank the insertion site were used to determine the DNA sequence encoding the peptide for the phage in each group. […] The DNA sequences encoding dyed-hair-binding peptides isolated were determined. Peptides Dye-1 through Dye-16 were those sequenced after round 4 of selection. Peptides Dye 17 through Dye-28 were those isolated and sequenced after a fifth round of selection.
The ELISA-type assay described in Example 1 was used to evaluate the affinity of dyed-hair-binding peptides for dyed hair. All of the synthesize peptides in Table 2 were evaluated for their ability to bind to dyed hair versus two negative controls (a non-selected peptide and a blank (no peptide)).
The EC50 values (the concentration at which half the maximum binding was observed by measuring A405 nm) were deduced and given in Table 3.

Going from “SSNDSNVSWFHYYASGLTSSR-GSSGK-(biotin) [Aff15013]” to NYNYNYNYQYSSR-GSSGK (biotin) [Aff15011], the EC50 rises from ~1000 nM to > 10000 nM. The first is the more potent here.

First: SSNDSNVSWFHYYASGLTSSR-GSSG-SRKSSQKNPHHPKPPKKPTAR-GSSGK (biotin) [Aff15025]
Second: QYYQDYQYYHSSR-GSSK (biotin) [Aff15029]
The EC50 of the first is 40-fold lower: ~25 nM for the first, ~1000 nM for the second. The first is the more potent here.

YYYDYYQQDYSSR-GSSGK (biotin) [Aff15027] and “LLSDFHYGDMWDASR-GSSGK (biotin) [Aff15016]” are the same in EC50: ~1000 nM for the first, ~1000 nM for the second.

Work on YHYDYDHYYESSR-GSSGK (biotin) [Aff15030] yielded an EC50 of ~1000 nM.
